| Compound | melting point [°C] |
| --- | --- |
| COc1ccc(C(=O)Nc2cnccc2Cl)cc1OC1CCCC1 | 130 to 132 |
| C[C@H]1[C@H](N)CN1c1c(F)c(N)c2c(=O)c(C(=O)O)cn(C3CC3)c2c1F (relative stereo) | 206 to 210 |
| O=C(NCCCCO)c1c([N+](=O)[O-])ccc(N(CCBr)CCBr)c1[N+](=O)[O-] | 114 to 117 |
| CCC(CCOC)n1cc(Cl)nc(N2CCc3cc(Cl)cc(Cl)c32)c1=O (centres undefined) | 95 to 97 |
| COC(=O)C=CCC1C(=O)N2C(C(=O)OCc3ccc([N+](=O)[O-])cc3)=CCC12 (centres undefined) | 109 to 111 |
| CCOC(=O)CC(C#N)=CC(=CN(C)C)c1ccc(Cl)cc1 | 168 to 170 |
| C=CCOc1cnc(SC)nc1 | 41 to 42 |
| O=c1c2ccccc2c(Br)cn1C1CN2CCC1CC2 (racemic) | 208 to 209 |
| COCc1cc(C(O)CNCCCCCCOCCc2ccc(OC)cc2)ccc1O (centres undefined) | 97.5 to 98.5 |
| COc1cccc2c(Cl)c(C(=O)C(C)C)cnc12 | 90 to 92 |
| CS(=O)(=O)Nn1c(=O)[nH]c2cc(C(F)(F)F)c(-c3cccc(C#N)c3)cc2c1=O | 291 to 292 |
| Fc1ccc2c(c1F)OCc1csc(=S)n1-2 | 163 to 167 |
| CCc1c(C(=O)OC(C)C)ncc2[nH]c3ccc(NC(C)=S)cc3c12 | 158 to 160 |
| CC1CCc2cc3c(cc21)OCC(=O)CO3 (centres undefined) | 79 to 80 |
| O=c1[nH]c2cc(F)c(NCC3CCCCO3)cc2o1 (centres undefined) | 185 to 186 |
| CC(=O)c1c(C)nc2c(OCc3c(Cl)ccc(S(=O)(=O)N4CCC[C@H]4C(=O)NCCCNC(=O)c4ccc(C#N)cc4)c3Cl)cccn12 | 100 to 102 |
| Cc1ccc2c(c1)C(=O)c1ccc(-c3nnn[nH]3)cc1S2(=O)=O | 267 |
| Cc1ccc(C(=O)C2=C(O)C(=O)N(c3ccc(C)nn3)C2c2ccc(OCCN(C)C)cc2)cc1 (centres undefined) | 263 to 266 |
| COc1cc2sc(CC(C)(Oc3ccc(C(C)C)cc3)C(=O)O)cc2c(Cl)c1OC (centres undefined) | 105 to 108 |

| Compound | melting point [°C] |
| --- | --- |
| COc1cc2c(cc1OC)C(c1sc(O)nc1C)=NCC2 | 114 to 120 |
| CCCNC(=O)CC1(C)Cc2c(C)c(N3CCN(c4ccc(OC)cc4)CC3)c(C)c(C)c2O1 (centres undefined) | 135 to 138 |
| CCOC(=O)c1cn(CC)c2nc(N3CCN(C=O)CC3)ncc2c1=O | 195 |
| CCCc1c(C#N)c(-c2ccc(C#N)cc2)c(C)n1Cc1cnc(Cl)c(COC(=O)CCC(=O)O)c1 | 167 to 168 |
| CNC(=O)c1cccc(NC(=O)Cc2cc(OC)cc(OC)c2)c1 | 146 to 147 |
| CC[C@H](CCC(=O)OC(C)(C)C)C(=O)N[C@@H](Cc1ccccc1)C(=O)OC | 120 to 121 |
| COc1cc(C(C)C)c2c(c1)S(=O)(=O)N(CBr)C2=O | 157 to 159 |
| Cc1cnc(Cl)c(OCC(O)CNC(C)C)n1 (centres undefined) | 109 to 110 |
| CN=C(NC#N)N1CCc2[nH]cnc2C1 | 240 |
| COc1ccc2c(c1)CCC1C3CC4OCCOC4C3(C)CC(=O)C21C (centres undefined) | 142 to 145 |
| CC(C)(C)NC(=S)Nc1cc(F)cc(F)c1 | 140 to 142 |
| COC(=O)N1C2=C(C(=O)CC(C)(C)C2)C(c2ccc([N+](=O)[O-])cc2)C2=C1CC(C)(C)CC2=O | 189 to 190 |
| CCOC(=O)Cc1cc(O)nc(N(CC)CC)n1 | 98 to 100 |
| Cn1nc(-c2cnc3[nH]cc(C(=O)NCC(C)(C)C)c3n2)c2ccc(F)cc21 | 294 to 295 |
| BrCc1cc(I)cc(I)c1I | 120 to 121 |
| CCN1c2ncccc2C(N2CCCC2)=Nc2c(C)cc(C)nc21 | 138 to 140 |
| CCOc1ccc(CO)c(Oc2ccc(Cl)cc2Cl)n1 | 106 to 107 |
| COc1ccc2[nH]cc(CC(C)(C)[N+](=O)[O-])c2c1 | 83 to 85 |

Further lines, results first:

| melting point [°C] | Compound |
| --- | --- |
| 256 | O=C(Nc1ccc2ccc(Cl)nc2n1)c1ccc2c(c1)OCO2 |
| 152 | O=C1OC2(c3ccccc3)CCCN2c2ccccc21 (centres undefined) |
| 140 to 141 | COc1ccc(C(=O)SC[C@@H](C)C(=O)N2CCC[C@H]2C(=O)O)cc1 |
| 211 to 212 | Nc1sc2c(c1C(=O)c1ccc3c(c1)OCO3)CCN(C(=O)c1ccccc1)C2 |
| 142 to 144 | O=C(NCCCN1CCC(c2ccccn2)CC1)N1C(=O)OCC1c1ccc(F)c(F)c1 (centres undefined) |
| 89 to 90 | CC(C)(C)OC(=O)N1CCN(Cc2ccccc2)C(=O)C1 |
| 70 to 77 | FC(F)(c1ccccc1)C(F)(F)c1ccccc1CBr |
| 175 | CC1(C)CCCN(C(=O)CN(C(=O)CNC(=O)Nc2cccc(CCO)c2)c2ccccc2)C1 |
| 125 to 134 | CC(O)(c1ccc(F)cc1)C1CCN(CC2CC(c3ccc4[nH]c(=O)oc4c3)=NO2)CC1 (centres undefined) |
| 110 to 112 | CCCC(=O)c1cnc2cc(COC(=O)c3ccccc3)ccc2c1Nc1ccccc1C |
| 73 to 74 | O=C(Cl)c1cc(OCc2ccccc2)cc(OCc2ccccc2)c1 |
| 203 to 205 | CCOC(=O)c1nn(-c2ccccc2Br)c(=O)c2c(N)scc12 |
| 216 to 222 | Nc1ccc2[nH]c3cc(-c4ccccc4Cl)c4c(c3c2c1)C(=O)NC4=O |
| 81 to 82 | COCCNC(=O)c1cccc(-c2cccc3cc(Cc4cccc(C(C)=O)c4)sc23)c1 |
| 125 to 126 | Cc1ccc(OC(=O)N2CC3CC(CN(CC(O)COc4ccc(C#N)cc4)C3)C2)cc1 (centres undefined) |
| 194 to 196 | O=c1nc(-c2ccc(NCc3ccccc3)nc2)sc2ccccc12 |

| melting point [°C] | Compound |
| --- | --- |
| 183 to 185 | CCCCCCCNC(=O)Nc1ccc(-n2ccnc2)cc1C(=O)NCC1CCN(C(c2ccccc2)c2ccccc2)CC1 |
| 180 to 181 | COc1ccc(N2CCN(C(=O)c3cn4cc(Cl)ccc4n3)CC2)cc1 |
| 185 | CC(C)(C)OC(=O)NCCCCCNC1(c2ccccc2Cl)C(=O)Nc2ccc(Cl)cc21 (centres undefined) |
| 152 to 154 | CCOC(=O)Cc1[nH]c(C(=O)c2ccccc2)c(C)c1C(=O)OCC |
| 150 to 151 | CS(=O)(=O)c1ccc(-c2cc(=O)n(Cc3ccc(F)cc3)nc2-c2ccc(F)cc2)cc1 |
| 128 | O=[N+]([O-])c1ccccc1NC(CO)c1c(Cl)cccc1Cl (centres undefined) |
| 83 | Cn1c(C(F)(F)F)nn(-c2ccccc2[N+](=O)[O-])c1=O |
| 230 to 232 | N#Cc1cnc2cc(-c3ccc(C=O)cc3)sc2c1Nc1ccc(Oc2ccccc2)cc1 |
| 169 to 171 | COc1cc(-c2oc3cc(I)ccc3c(=O)c2O)cc(OC)c1OCc1ccccc1 |
| 165 to 167 | CCOC(=O)c1cc(C#N)c(C=O)nc1Nc1ccccc1 |
| 189 to 193 | Nc1cc2c(cn1)CC(c1ccc(Cl)cc1Cl)c1ccccc1-2 (centres undefined) |
| 69 to 71 | O=c1oc(-c2ccccc2)cc(O)c1C(CC1CC1)SC1CCCCC1 (centres undefined) |
| 257 to 258 | CC1(C)Oc2c(ccc3oc(C(=O)O)cc(=O)c23)-c2ccc(Cl)cc21 |
| 145 to 147 | N#Cc1c(Br)c(Br)n(Cc2ccccc2)c1-c1ccc(C(F)(F)F)cc1 |
| 115 to 117 | Cc1ccccc1Oc1cccc2c1OC(=O)C2(C)C |
| 196 to 198 | COC(=O)c1c(C(=O)OC)c(-c2ccccc2)c(C(=O)O)c(C(=O)O)c1-c1ccccc1 |

Reference: a melting point compilation (Tetko et al.; mined from patent text by program, amines drawn as free bases though some values may be those of a salt)
